Measurements: US20240158370A1, “CK1 alpha AND DUAL CK1 alpha / GSPT1 DEGRADING COMPOUNDS” (Innovo Therapeutics, Inc., priority 2022, published 2024)

Experiments:
GSPT1 = GSPT1 (Homo sapiens, UniProt P15170+Q96SW2); assay: HiBiT degradation assay, GSPT1, Procedure A; type: cell-based; set-up: HiBit-GSPT1 KI HEK293(LgBit) Cells; host or cells: HEK293(LgBit) knock-in cells; settings: six hours incubation
Experimental: (§1) Compounds were spotted onto Cornin 384-Well, Cell Culture-Treated, Flat-Bottom, Low Flange Microplate (Fisher Scientific, Catalog #07-201-013) using a Tecan D300e digital dispenser. Ten-point dose response curves spanning from 10 μM to 0.005 μM with a 0.1% DMSO tolerance were used.
(§2) Cells were dissociated from tissue 182 cm^2 Tissue Culture Flask (CellTreat Catalog #229351) by washing the cells with PBS (Fisher Scientific Catalog #BP3994) followed by dissociation with Trypsin-EDTA (0.25%) (Thermo Scientific Catalog #25200056). Trysin was neutralized and cells were resuspended with DMEM+10% FBS. Cells were centrifuged for 5 minutes at 1200 RPMs. Cell culture media was aspirated off and cells were resuspended with DMEM+10% FBS. Cell density was determined using a Denovix CellDrop BF cell counter. Cell density was adjusted to 1×10^6 cells/ml. 40 μl of cells was added to compound treated tissue culture plates and incubated for six hours at 37° C. After six hours, cell culture plates were removed from tissue culture incubator and cooled to room temperature. 40 μl of Nano-GloHiBiT Lytic Detection Reagent (Promega, Catalog #N3040) was added to each well. Plates were placed on an orbital shaker (600 rpm) for 20 minutes. Luminescence was measured using an Envsion plate reader (Perkin Elmer). DC50 curves and Ymin were generated using a 4-parameter curve fit with GraphPad Prism software (Prism Corporation).
(§3) Results from the HiBiT assay (DC50 (nM) and Ymin (% remaining)) are shown below. All CK1α data was generated according to Procedure A. GSPT1 data for Examples 1-600, 603-620 and 703-705 was generated according to Procedure A. GSPT1 data for Examples 601, 621-702 and 706-735 was generated according to Procedure B.

CK1α = target: T1, CK1α (Homo sapiens, UniProt P48729+Q96SW2); assay: HiBiT degradation assay, CK1α, Procedure A; type: cell-based; settings: six hours incubation
T1 construct: CSNK1A1-HiBit KI HEK293(LgBit) Cells; host or cells: HEK293(LgBit) knock-in cells
T1 sequence (P48729 whole entry): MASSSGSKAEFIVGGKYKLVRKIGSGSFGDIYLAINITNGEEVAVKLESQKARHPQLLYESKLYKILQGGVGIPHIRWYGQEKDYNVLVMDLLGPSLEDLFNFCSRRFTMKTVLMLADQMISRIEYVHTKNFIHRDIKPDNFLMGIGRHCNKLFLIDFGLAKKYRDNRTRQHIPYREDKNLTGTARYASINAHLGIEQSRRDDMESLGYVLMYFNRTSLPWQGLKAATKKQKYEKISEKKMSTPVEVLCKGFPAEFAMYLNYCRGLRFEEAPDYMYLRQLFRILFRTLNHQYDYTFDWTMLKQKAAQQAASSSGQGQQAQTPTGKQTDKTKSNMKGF
T1 sequence (Q96SW2 whole entry): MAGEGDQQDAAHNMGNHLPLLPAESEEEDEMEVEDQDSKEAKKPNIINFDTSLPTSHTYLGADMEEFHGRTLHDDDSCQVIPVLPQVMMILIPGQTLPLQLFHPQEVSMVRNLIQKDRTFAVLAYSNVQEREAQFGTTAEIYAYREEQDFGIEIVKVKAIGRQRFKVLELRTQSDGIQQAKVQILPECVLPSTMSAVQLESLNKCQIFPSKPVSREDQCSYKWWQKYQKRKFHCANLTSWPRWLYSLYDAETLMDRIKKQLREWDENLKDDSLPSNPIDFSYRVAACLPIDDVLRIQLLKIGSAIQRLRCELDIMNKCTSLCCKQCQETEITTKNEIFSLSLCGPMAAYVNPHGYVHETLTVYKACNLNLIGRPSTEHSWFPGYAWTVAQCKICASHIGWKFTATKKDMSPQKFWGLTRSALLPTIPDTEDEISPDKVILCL
T1 sequence (Q16531 whole entry partner): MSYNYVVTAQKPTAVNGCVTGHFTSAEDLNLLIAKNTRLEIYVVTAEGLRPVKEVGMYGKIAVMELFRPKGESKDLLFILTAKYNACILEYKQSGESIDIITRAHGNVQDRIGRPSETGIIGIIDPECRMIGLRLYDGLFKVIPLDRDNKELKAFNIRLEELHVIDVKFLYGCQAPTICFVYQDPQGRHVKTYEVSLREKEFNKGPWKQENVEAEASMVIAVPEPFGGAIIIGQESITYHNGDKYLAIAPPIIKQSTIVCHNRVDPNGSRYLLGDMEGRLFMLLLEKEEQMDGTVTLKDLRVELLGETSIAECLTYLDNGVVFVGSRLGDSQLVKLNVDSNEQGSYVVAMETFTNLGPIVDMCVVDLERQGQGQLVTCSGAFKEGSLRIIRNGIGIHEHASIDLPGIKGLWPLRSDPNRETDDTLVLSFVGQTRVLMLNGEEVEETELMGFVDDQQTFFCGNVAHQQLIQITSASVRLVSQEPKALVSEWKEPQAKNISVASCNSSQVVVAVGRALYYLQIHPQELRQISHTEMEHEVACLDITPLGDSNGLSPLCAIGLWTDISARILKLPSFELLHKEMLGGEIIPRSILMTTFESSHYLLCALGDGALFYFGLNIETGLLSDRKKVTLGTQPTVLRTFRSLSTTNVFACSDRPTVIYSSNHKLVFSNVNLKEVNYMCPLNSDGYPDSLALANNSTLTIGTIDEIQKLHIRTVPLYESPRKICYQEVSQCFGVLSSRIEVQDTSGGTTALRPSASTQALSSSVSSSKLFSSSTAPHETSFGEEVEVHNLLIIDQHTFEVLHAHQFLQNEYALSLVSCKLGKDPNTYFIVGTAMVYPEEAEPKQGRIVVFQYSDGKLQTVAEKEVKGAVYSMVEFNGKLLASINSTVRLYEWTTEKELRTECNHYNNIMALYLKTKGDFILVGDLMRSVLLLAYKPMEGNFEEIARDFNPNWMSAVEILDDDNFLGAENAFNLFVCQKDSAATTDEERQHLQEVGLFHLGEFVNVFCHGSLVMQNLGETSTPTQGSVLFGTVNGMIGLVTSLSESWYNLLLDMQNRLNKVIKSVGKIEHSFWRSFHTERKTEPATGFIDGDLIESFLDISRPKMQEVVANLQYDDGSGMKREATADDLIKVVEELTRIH
Experimental: as §1, §2, §3

GSPT1, sequence (P15170 whole entry): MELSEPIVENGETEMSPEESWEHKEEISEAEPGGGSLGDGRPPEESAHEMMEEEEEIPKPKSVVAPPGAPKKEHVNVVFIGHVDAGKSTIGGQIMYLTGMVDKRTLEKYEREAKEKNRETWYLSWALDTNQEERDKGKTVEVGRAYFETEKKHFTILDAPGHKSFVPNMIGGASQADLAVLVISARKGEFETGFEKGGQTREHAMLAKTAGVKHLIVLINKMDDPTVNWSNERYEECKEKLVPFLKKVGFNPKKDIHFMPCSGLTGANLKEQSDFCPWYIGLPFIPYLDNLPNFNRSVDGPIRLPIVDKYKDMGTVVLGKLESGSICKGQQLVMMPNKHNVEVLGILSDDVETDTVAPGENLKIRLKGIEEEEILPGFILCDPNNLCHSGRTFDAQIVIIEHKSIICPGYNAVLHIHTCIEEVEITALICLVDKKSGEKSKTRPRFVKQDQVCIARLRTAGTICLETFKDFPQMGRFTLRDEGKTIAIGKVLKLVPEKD
GSPT1, sequence (Q96SW2 whole entry): as the sequence (Q96SW2 whole entry) above
GSPT1, sequence (Q16531 whole entry partner): as the sequence (Q16531 whole entry partner) above

Row | Compound | DC50 (GSPT1) [nM] | GSPT1 Ymin (GSPT1) | CK1α Ymin (CK1α) | DC50 (CK1α) [nM]
1 | Cn1c(C2CCOCC2)nc(-c2ccc3c(c2)CN(C2CCC(=O)NC2=O)C3=O)c1-c1ccccc1 (centres unmarked) [Example 50, 3-(5-(1-methyl-5-phenyl-2-(tetrahydro-2H-pyran-4-yl)-1H-imidazol-4-yl)-1-oxoisoindolin-2-yl)piperidine-2,6-dione] | ≥ 25 | F (F = >75-100% remaining) | C (C = 0-10% remaining) | < 25
2 | O=C1CCC(N2Cc3cc(-c4nc(C(F)(F)F)[nH]c4-c4ccccc4)ccc3C2=O)C(=O)N1 (centres unmarked) [Example 53, 3-(1-Oxo-5-(5-phenyl-2-(trifluoromethyl)-1H-imidazol-4-yl)isoindolin-2-yl)piperidine-2,6-dione] | ≥ 25 | E (E = >25-75% remaining) | C (C = 0-10% remaining) | < 25
3 | O=C1CCC(N2Cc3cc(-c4c[nH]c(-c5ccccc5)n4)ccc3C2=O)C(=O)N1 (centres unmarked) [Example 54, 3-(1-Oxo-5-(2-phenyl-1H-imidazol-4-yl)isoindolin-2-yl)piperidine-2,6-dione] | ≥ 25 | F (F = >75-100% remaining) | C (C = 0-10% remaining) | < 25
4 | Cn1ncc(-c2ccc3c(c2)CN(C2CCC(=O)NC2=O)C3=O)c1-c1cccc(N2CCCC2)c1 (centres unmarked) [Example 55] | ≥ 25 | F (F = >75-100% remaining) | E (E = >25-75% remaining) | < 25
5 | CNC(=O)c1ccc(-c2c(-c3ccc4c(c3)CN(C3CCC(=O)NC3=O)C4=O)cnn2C)cc1 (centres unmarked) [Example 56] | ≥ 25 | F (F = >75-100% remaining) | D (D = >10- 25% remaining) | ≥ 25
6 | Cn1ncc(-c2ccc3c(c2)CN(C2CCC(=O)NC2=O)C3=O)c1-c1ccc(C#N)cc1 (centres unmarked) [Example 57] | ≥ 25 | F (F = >75-100% remaining) | E (E = >25-75% remaining) | ≥ 25
7 | Cn1ncc(-c2ccc3c(c2)CN(C2CCC(=O)NC2=O)C3=O)c1-c1ccc(F)c(C#N)c1 (centres unmarked) [Example 58] | ≥ 25 | F (F = >75-100% remaining) | E (E = >25-75% remaining) | ≥ 25
8 | Cn1ncc(-c2ccc3c(c2)CN(C2CCC(=O)NC2=O)C3=O)c1-c1cccc(C(F)F)c1 (centres unmarked) [Example 59] | ≥ 25 | F (F = >75-100% remaining) | E (E = >25-75% remaining) | < 25
9 | CC(C)c1ccccc1-c1c(-c2ccc3c(c2)CN(C2CCC(=O)NC2=O)C3=O)cnn1C (centres unmarked) [Example 60] | ≥ 25 | F (F = >75-100% remaining) | E (E = >25-75% remaining) | < 25
10 | Cn1ncc(-c2ccc3c(c2)CN(C2CCC(=O)NC2=O)C3=O)c1-c1ccc(OCc2ccccc2)cc1 (centres unmarked) [Example 61] | ≥ 25 | F (F = >75-100% remaining) | E (E = >25-75% remaining) | < 25
11 | Cn1ncc(-c2ccc3c(c2)CN(C2CCC(=O)NC2=O)C3=O)c1-c1ccc(N2CCOCC2)cc1 (centres unmarked) [Example 62] | ≥ 25 | F (F = >75-100% remaining) | D (D = >10- 25% remaining) | < 25
12 | Cn1ncc(-c2ccc3c(c2)CN(C2CCC(=O)NC2=O)C3=O)c1-c1ccc(C(F)(F)F)cc1 (centres unmarked) [Example 63] | ≥ 25 | F (F = >75-100% remaining) | E (E = >25-75% remaining) | < 25
13 | COc1ccc(-c2c(-c3ccc4c(c3)CN(C3CCC(=O)NC3=O)C4=O)cnn2C)c(Cl)c1 (centres unmarked) [Example 65] | ≥ 25 | F (F = >75-100% remaining) | D (D = >10- 25% remaining) | < 25
14 | Cc1sccc1-c1c(-c2ccc3c(c2)CN(C2CCC(=O)NC2=O)C3=O)cnn1C (centres unmarked) [Example 66] | ≥ 25 | F (F = >75-100% remaining) | E (E = >25-75% remaining) | ≥ 25
15 | Cn1ncc(-c2ccc3c(c2)CN(C2CCC(=O)NC2=O)C3=O)c1-c1ccccc1F (centres unmarked) [Example 67] | ≥ 25 | F (F = >75-100% remaining) | E (E = >25-75% remaining) | < 25
16 | Cn1ncc(-c2ccc3c(c2)CN(C2CCC(=O)NC2=O)C3=O)c1-c1ccc(Cl)s1 (centres unmarked) [Example 68] | ≥ 25 | F (F = >75-100% remaining) | D (D = >10- 25% remaining) | < 25

Row | Compound | DC50 (GSPT1) [nM] | GSPT1 Ymin (GSPT1) | CK1α Ymin (CK1α) | DC50 (CK1α) [nM]
17 | COc1cccc(-c2c(-c3ccc4c(c3)CN(C3CCC(=O)NC3=O)C4=O)cnn2C)c1 (centres unmarked) [Example 69] | ≥ 25 | F (F = >75-100% remaining) | E (E = >25-75% remaining) | < 25
18 | COc1ccc(-c2c(-c3ccc4c(c3)CN(C3CCC(=O)NC3=O)C4=O)cnn2C)cc1 (centres unmarked) [Example 70] | ≥ 25 | F (F = >75-100% remaining) | C (C = 0-10% remaining) | < 25
19 | Cn1ncc(-c2ccc3c(c2)CN(C2CCC(=O)NC2=O)C3=O)c1-c1ccccc1C(F)(F)F (centres unmarked) [Example 71] | ≥ 25 | F (F = >75-100% remaining) | F (F = >75-100% remaining) | < 25
20 | Cn1ncc(-c2ccc3c(c2)CN(C2CCC(=O)NC2=O)C3=O)c1-c1cccc(F)c1F (centres unmarked) [Example 73] | ≥ 25 | F (F = >75-100% remaining) | E (E = >25-75% remaining) | < 25
21 | Cc1ccccc1-c1c(-c2ccc3c(c2)CN(C2CCC(=O)NC2=O)C3=O)cnn1C (centres unmarked) [Example 74] | ≥ 25 | F (F = >75-100% remaining) | E (E = >25-75% remaining) | < 25
22 | Cn1ncc(-c2ccc3c(c2)CN(C2CCC(=O)NC2=O)C3=O)c1-c1ccc(Cl)c(Cl)c1 (centres unmarked) [Example 75] | ≥ 25 | F (F = >75-100% remaining) | E (E = >25-75% remaining) | ≥ 25
23 | Cc1cccc(-c2c(-c3ccc4c(c3)CN(C3CCC(=O)NC3=O)C4=O)cnn2C)c1 (centres unmarked) [Example 76] | ≥ 25 | F (F = >75-100% remaining) | D (D = >10- 25% remaining) | < 25
24 | Cn1ncc(-c2ccc3c(c2)CN(C2CCC(=O)NC2=O)C3=O)c1-c1cc(F)ccc1F (centres unmarked) [Example 77] | ≥ 25 | F (F = >75-100% remaining) | E (E = >25-75% remaining) | < 25
25 | COc1cc(-c2c(-c3ccc4c(c3)CN(C3CCC(=O)NC3=O)C4=O)cnn2C)ccc1C (centres unmarked) [Example 78] | ≥ 25 | F (F = >75-100% remaining) | E (E = >25-75% remaining) | < 25
26 | Cn1ncc(-c2ccc3c(c2)CN(C2CCC(=O)NC2=O)C3=O)c1-c1ccc(Cl)cc1F (centres unmarked) [Example 79] | ≥ 25 | F (F = >75-100% remaining) | E (E = >25-75% remaining) | < 25
27 | Cc1ccc(-c2c(-c3ccc4c(c3)CN(C3CCC(=O)NC3=O)C4=O)cnn2C)cc1Cl (centres unmarked) [Example 80] | ≥ 25 | F (F = >75-100% remaining) | E (E = >25-75% remaining) | < 25
28 | Cn1ncc(-c2ccc3c(c2)CN(C2CCC(=O)NC2=O)C3=O)c1-c1ccc(OCc2ccccc2)c(Cl)c1 (centres unmarked) [Example 81] | ≥ 25 | F (F = >75-100% remaining) | E (E = >25-75% remaining) | ≥ 25
29 | COc1ccc(Cl)c(-c2c(-c3ccc4c(c3)CN(C3CCC(=O)NC3=O)C4=O)cnn2C)c1 (centres unmarked) [Example 82] | ≥ 25 | F (F = >75-100% remaining) | E (E = >25-75% remaining) | < 25
30 | Cc1ccc(-c2c(-c3ccc4c(c3)CN(C3CCC(=O)NC3=O)C4=O)cnn2C)c(C)c1 (centres unmarked) [Example 83] | ≥ 25 | F (F = >75-100% remaining) | E (E = >25-75% remaining) | < 25
31 | CC(C)c1ccc(-c2c(-c3ccc4c(c3)CN(C3CCC(=O)NC3=O)C4=O)cnn2C)cc1 (centres unmarked) [Example 84] | ≥ 25 | F (F = >75-100% remaining) | E (E = >25-75% remaining) | < 25
32 | Cc1ccc(-c2c(-c3ccc4c(c3)CN(C3CCC(=O)NC3=O)C4=O)cnn2C)c(Cl)c1 (centres unmarked) [Example 85] | ≥ 25 | F (F = >75-100% remaining) | E (E = >25-75% remaining) | < 25
